# Source: patent US20030134342A1, “Binding-specific peptides, binding-specific carrier molecules, and uses thereof” (priority 2001, published 2003)
# Where no end group is shown, it is not given here.
# Experiments:
# [1] = test system: human myeloid leukemia cell line HL60; test: Viability of HL60 cells, trypan blue; format: cell-based
# Protocol: Studies were conducted of the effects of the free G5 12-8B (artificially synthesized), phage displaying G5 12-8B, the free A2 11-24 peptide, phage displaying the A2 11-24 peptide, a combination of the free G5 and A2 peptides, a combination of pure peptides plus phage displaying the peptides, and several concentrations of peptide.
# [2] = test system: AML bone marrow cells; test: Methylcellulose culture of AML bone marrow cells with peptides: proliferation (colonies) and differentiation (morphology); format: cell-based, human; conditions: for Activation of Proliferation / Cell Differentiation / Inhibition of Proliferation: peptide alone; for Activation of Proliferation GM-CSF / Cell Differentiation GM-CSF: with GM-CSF; for induction of differentiation of the patient cells (FIG. 8): AML bone marrow cells, 14 days methylcellulose
# Protocol: The effect of various peptides were analyzed for their biological activity on cells from a patient with acute myelogenous leukemia. The AML cells were cultured into a semi-solid medium of methylcellulose in order to determine the cloning efficiency and the differentiation of the cells. The various peptides were introduced into the semi-solid cell culture at a concentration of 10^−4 M (0.1 mM) peptide. After 14 days continuous incubation of the cell cultures, the morphology of the cells were analyzed. The data are shown in FIG. 7 for the cultures and show the percentage of immature cells in the culture (solid black), the percentage of small myeloblasts (solid white), the percentage of young cells (dark gray), and the relative percentage of monocytes to […] (light gray). The data regarding the biological response of AML bone marrow cells in the presence of the various peptides is shown in the table below.
# [3] = test system: CLL cells; test: ELISA binding of phage displaying peptides to fixed cells: CLL cells; design: species or system human; conditions: in words
# Protocol: (§1) Preliminary experiments were performed to identify specific peptides by using cells from patients diagnosed with CLL, CML, and AML. The screening was performed by incubating the cells with the phage-peptides from the library. This incubation allows interaction between the peptide and the cell. The binding step was followed by several washes to eliminate free phage. Phage bound on the cell surface was eluted.
# (§2) After the last round of binding with one cell type, the eluted phage was plated on an agar plate with the appropriate selection antibiotics. Each individual colony, corresponding to one individual peptide sequence, was amplified in a 96-well plate. After purification, these peptides were tested for their ability to bind to the cells in a microtiter plate by ELISA.
# (§3) Each peptide was dispensed in a 96-well plate, containing cells previously fixed. Each colony was tested in a triplicate assay with the appropriate controls. After incubation of cells with an individual clone, the wells were washed to eliminate free phage. The bound phages were detected by using a monoclonal anti-M13 antibody/horseradish peroxidase (HRP) conjugate. After addition of the HRP substrate, the intensity of the coloration was measured by spectrophotometry. The light absorbance values (optical density values, O.D. values) are proportional to the number of phage bound to the cells.
# (§4) The binding to various cell types were examined to evaluate the cellular specificity of the phage clones. For example, the clones from phage eluted from CLL patient cells were assayed for their ability to bind cells from an AML patient. Cells from normal donors (non-leukemic) were also evaluated to ascertain leukemia cell specificity.
# (§5) Peripheral blood and bone marrow samples were collected from patients after informed consent. The samples were collected in tubes containing sodium citrate. Mononuclear cells were isolated by Ficoll-Hypaque density gradient separation and collection of the cells at a density of 1.077 g/mL.
# (§6) The wells of a 96-well plate were pre-treated with 100 μL of poly-L-lysine (0.01 mg/mL in phosphate-buffered saline, 120 mM NaCl, 2.7 mM KCl, 10 mM phosphate buffer, “PBS”) for 2-16 hours at room temperature. After draining the poly-L-lysine from the wells, the excess poly-L-lysine was removed from the wells by flicking. The cells were washed with PBS, then suspended in PBS and diluted to a final concentration of […]. The cell suspension (200 μL; 250,000 cells) were added to each well needed for the assay.
# (§7) The plates were centrifuged at 500 g for about 5 minutes in a microplate carrying centrifuge when available. The cells were fixed to the wells through the addition of glutaraldehyde (100 μL of 0.5%) and incubating at room temperature for about an hour. The glutaraldehyde was removed and the cell-coated wells washed once with PBS. Alternatively, the cells were permitted to settle to the well bottoms for about 4 hours at 37° C., and the glutaraldehyde fixative was added after removing the PBS.
# (§8) A glycine solution (200 μl of 0.1 M glycine in PBS) containing bovine serum albumin (BSA; 1%) was added to the wells and permitted to incubate for 30 minutes to block excess glutaraldehyde. The glycine was removed, and the cell-coated wells washed once with PBS. A sodium pyrophosphate solution (200 μL of 0.3 mg/mL NaPPi) was added to the wells and incubated for an hour at room temperature to neutralize lysine charges. The pyrophosphate solution was removed and the wells washed once with PBS. Multiwell microtiter plates with cell-coated wells were stored at 4° C. with fresh PBS solution in the coated wells.
# (§9) The cells to be studied for binding were suspended in PBS and adsorbed onto to a poly-L-lysine pretreated 96-well plate and kept at 4° C. The PBS was removed from the wells and an H2O2 solution in PBS (6% H2O2 in 200 μL/well) was added. […]
# [4] = test system: all myeloid cells, both malignant and nonmalignant; test: ELISA binding of phage displaying peptides to fixed cells: all myeloid cells; design: species or system human; conditions: in words
# Protocol: as §1, §2, §3, §4, §5, §6, §7, §8, §9
# [5] = test system: CML cells; test: ELISA binding of phage displaying peptides to fixed cells: CML cells; design: species or system human; conditions: in words
# Protocol: as §1, §2, §3, §4, §5, §6, §7, §8, §9
# [6] = test system: AML cells; test: ELISA binding of phage displaying peptides to fixed cells: AML cells; design: species or system human; conditions: in words
# Protocol: as §1, §2, §3, §4, §5, §6, §7, §8, §9
# [7] = test system: human bone marrow AML cells; test: Effect of phage-peptides on differentiation, cell number and viability of freshly obtained AML patient bone marrow cells cultured seven days; format: cell-based; conditions: for Number of Cells / Percent Differentiation / Viability: phage-peptides; for Percent differentiated in Specimen 2 / Percent differentiated in Specimen 1: peptides in bacteriophage, AML cells cultured seven days in vitro
# Excerpt: The effect of various phage-peptides were studied on the differentiation of cells from two AML patients.
# [8] = test system: normal peripheral blood cells (lymphocytes and granulocytes); test: ELISA binding of phage displaying peptides to fixed cells: normal peripheral blood cells; design: species or system human; conditions: in words
# Protocol: as §1, §2, §3, §4, §5, §6, §7, §8, §9
substance,measurement,setting,value
IEETARKG [peptide A2],Day 5 Viability,[1]; 5 day,97%
same,Day 7 Viability,[1]; 7 day,95%
same,Day 9 Viability,[1]; 9 day,74%
IEETARKG [A2 11-24 no Cys],Activation of Proliferation,"[2]; fraction, not explained",4/14
same,Cell Differentiation,"[2]; fraction, not explained",4/13
same,Activation of Proliferation GM-CSF,"[2]; fraction, not explained",1/2
same,Cell Differentiation GM-CSF,"[2]; fraction, not explained",2/2
same,activity on cell differentiation compared with the peptide with cysteine residues (FIG. 8),[2]; in words,higher activity
same,induction of differentiation of the patient cells (FIG. 8),[2]; in words,able to induce the differentiation
same,Activation of Proliferation (Patient No.) +GM-CSE,"[2]; numbers of the AML patients whose cells responded, peptide with GM-CSF",11
NETTVREY [F10 11-24],binding of phage displaying the peptide to CLL cells,[3],not
same,"binding of phage displaying the peptide to all myeloid cells, both malignant and nonmalignant",[4],bind
same,binding of phage displaying the peptide to CML cells,[5],bind
same,binding of phage displaying the peptide to AML cells,[6],bind
DEKRGPNE [B4(1)],binding of phage displaying the peptide to CML cells,[5],bind
same,Number of Cells,[7]; Patient 1,1.3 106
same,Number of Cells,[7]; Patient 2,0.25 106
same,Percent Differentiation,[7]; Patient 2,53%
same,Percent differentiated in Specimen 2,[7],53%
same,binding of phage displaying the peptide to AML cells,[6],bind
VSEDIYDA [C10 12-8B],binding of phage displaying the peptide to CLL cells,[3],bind
same,"binding of phage displaying the peptide to all myeloid cells, both malignant and nonmalignant",[4],bind
same,binding of phage displaying the peptide to CML cells,[5],bind
same,binding of phage displaying the peptide to AML cells,[6],bind
NHVCSRLG [B6 11-24],"binding of phage displaying the peptide to all myeloid cells, both malignant and nonmalignant",[4],bind
NELHMKQH [G6 12-8B],"binding of phage displaying the peptide to all myeloid cells, both malignant and nonmalignant",[4],bind
CNHVCSRLGC [B6 12-8B],Activation of Proliferation,"[2]; fraction, not explained",5/14
same,Cell Differentiation,"[2]; fraction, not explained",3/13
same,Inhibition of Proliferation,"[2]; fraction, not explained",3/14
same,Activation of Proliferation GM-CSF,"[2]; fraction, not explained",3/5
same,Cell Differentiation GM-CSF,"[2]; fraction, not explained",2/5
NETTVREY [C9 11-24],binding of phage displaying the peptide to CLL cells,[3],bind
same,"binding of phage displaying the peptide to all myeloid cells, both malignant and nonmalignant",[4],bind
same,binding of phage displaying the peptide to CML cells,[5],bind
same,binding of phage displaying the peptide to AML cells,[6],bind
same,binding of phage displaying the peptide to blood cells (lymphocytes or granulocytes),[8],bind
EFQQWSGK [G2 11-24],binding of phage displaying the peptide to CML cells,[5],bind and binds
same,Number of Cells,[7]; Patient 1,1.11 106
same,Percent Differentiation,[7]; Patient 1,16.2%
same,Number of Cells,[7]; Patient 2,0.25 106
same,Percent Differentiation,[7]; Patient 2,39%
same,Percent differentiated in Specimen 1,[7],16%
same,Percent differentiated in Specimen 2,[7],39%
same,binding of phage displaying the peptide to AML cells,[6],bind and binds
"CIEETAAKGC [Peptide A2A, A2 with R replaced by A]",Activation of Proliferation,"[2]; fraction, not explained",4/11
same,Cell Differentiation,"[2]; fraction, not explained",3/8
same,Inhibition of Proliferation,"[2]; fraction, not explained",1/11
same,Activation of Proliferation GM-CSF,"[2]; fraction, not explained",2/4
same,Cell Differentiation GM-CSF,"[2]; fraction, not explained",1/4
same,"activity on cell differentiation (FIG. 9, another example)",[2]; in words,have a biological activity
same,activity on cell differentiation compared with the peptide with cysteine residues (FIG. 8),[2]; in words,higher activity
same,induction of differentiation of the patient cells (FIG. 8),[2]; in words,able to induce the differentiation
same,Inhibition of Proliferation,[2]; numbers of the AML patients whose cells responded,10
same,Activation of Differentiation,[2]; patient numbers,3
CNNATFEDGC [G2 12-8A],Activation of Proliferation,"[2]; fraction, not explained",6/14
same,Cell Differentiation,"[2]; fraction, not explained",2/12
same,Inhibition of Proliferation,"[2]; fraction, not explained",1/14
same,Activation of Proliferation GM-CSF,"[2]; fraction, not explained",2/5
same,Cell Differentiation GM-CSF,"[2]; fraction, not explained",2/5
granulocyte-macrophage colony-stimulating factor [GM-CSF],Number of Cells,[7]; Patient 1,1.57 106
same,Percent Differentiation,[7]; Patient 1,21%
same,Viability,[7]; Patient 1,80%
same,Number of Cells,[7]; Patient 2,0.87 106
same,Percent Differentiation,[7]; Patient 2,16.5%
same,Viability,[7]; Patient 2,89%
same,Percent differentiated in Specimen 1,[7],21%
same,Percent differentiated in Specimen 2,[7],17%
NNATVEDE [F9 11-24],"binding of phage displaying the peptide to all myeloid cells, both malignant and nonmalignant",[4],bind
